Reference: patent US20140221374A1, “RAF KINASE INHIBITORS” (Ruga Corporation, priority 2011, published 2014)

Legend:
wild-type C-RAF = wild-type C-RAF (Homo sapiens, UniProt P04049); test: In vitro assay for inhibition of RAF kinases (recombinant wild-type C-RAF, MEK (K97R) substrate); assay type: biochemical; details: 10 nM recombinant wild-type C-RAF
Protocol: (§1) The ability of compounds described herein to inhibit RAF kinase activity were determined from biochemical kinase inhibition assays using recombinant RAF proteins as known in the art.
Solutions of varying concentrations of test compounds or vehicle were added to 10 nM recombinant wild-type A-RAF, wild-type B-RAF, or wild-type C-RAF proteins incubated in the presence of different concentrations of ATP and 1 μM MEK (K97R) as substrate, as previously described (Wilhelm, S. M., et al., Cancer Res., 64: 7099-7109, 2004; Mason, C S., et al., EMBO J. 18: 2137-2148, 1999; Marais, R., et al., J. Biol. Chem., 272: 4378-4383, 1997). At least triplicate determinations for each individual test compound concentration were made and data plotted as mean±standard deviation relative to the control vehicle.

[1] = system: A375 cells (V600E activated B-RAF); test: In vitro tumor cell growth inhibition, MTT, 72 hours; assay type: cell-based; details: Homo sapiens, A-375, 72 hours incubation
Protocol: Briefly, growth inhibition of cells containing V600E activated B-RAF (A375, Colo205) versus cell lines with wild-type B-RAF (A431) were measured under anchorage-dependent conditions using MTT (3-(4,5-dimethylthiazol-2-yl)-2,5-diphenyltetrazolium bromide), following 72 hours incubation with either compound or vehicle, as previously described (Haass, N. K., et al., Clinical Cancer Res., 14: 230-239, 2008): Cell lines are obtained from the American Type Tissue Culture Collection (Maryland, USA) and cultured in media containing heat-inactivated 10% fetal bovine serum. Cell cultures were also maintained in 10 U/mL, penicillin, 100 μg/mL streptomycin and 2 mM glutamine. At least triplicate determinations for each individual test compound concentration were made and data plotted as mean±standard deviation relative to the control vehicle.

V600E-mutated B-RAF = V600E-mutated B-RAF (Homo sapiens, UniProt P15056, V600E); test: In vitro assay for inhibition of mutant B-RAF kinase (recombinant V600E-mutated B-RAF, MEK (K97R) substrate); assay type: biochemical; details: 10 nM recombinant V600E-mutated B-RAF
Chain of V600E-mutated B-RAF (P15056 whole entry V600E): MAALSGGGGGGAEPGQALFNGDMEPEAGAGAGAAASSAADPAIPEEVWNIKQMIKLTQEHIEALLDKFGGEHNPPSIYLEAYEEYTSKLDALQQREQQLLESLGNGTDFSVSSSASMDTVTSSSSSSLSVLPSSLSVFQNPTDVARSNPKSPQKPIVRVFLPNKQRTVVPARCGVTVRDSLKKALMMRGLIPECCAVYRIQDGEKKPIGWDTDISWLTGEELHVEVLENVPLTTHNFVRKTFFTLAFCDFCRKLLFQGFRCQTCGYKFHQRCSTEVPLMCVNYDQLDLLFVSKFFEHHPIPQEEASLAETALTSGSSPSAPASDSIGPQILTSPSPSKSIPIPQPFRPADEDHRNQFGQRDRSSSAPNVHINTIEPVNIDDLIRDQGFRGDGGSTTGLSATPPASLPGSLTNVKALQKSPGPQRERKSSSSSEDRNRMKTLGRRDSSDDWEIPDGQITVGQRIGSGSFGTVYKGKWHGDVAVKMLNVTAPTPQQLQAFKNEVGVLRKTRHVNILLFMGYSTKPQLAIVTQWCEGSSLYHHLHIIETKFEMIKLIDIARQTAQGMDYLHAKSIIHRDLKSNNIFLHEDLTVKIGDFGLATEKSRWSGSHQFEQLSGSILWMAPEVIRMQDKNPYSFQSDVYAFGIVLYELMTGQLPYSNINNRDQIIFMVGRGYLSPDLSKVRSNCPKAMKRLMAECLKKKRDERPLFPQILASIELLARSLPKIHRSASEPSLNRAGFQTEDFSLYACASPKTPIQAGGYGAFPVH
Protocol: as §1
Solutions of varying concentrations of test compounds or vehicle were added to 10 nM recombinant V600E-mutated B-RAF proteins incubated in the presence of different concentrations of ATP and […] (K97R) as substrate, as previously described (Wilhelm, S. M., et al., Cancer Res., 64: 7099-7109, 2004; Mason, C. S., et al.; EMBO J. 18: 2137-2.148, 1999; Marais, R., et al., J. Biol. Chem., 272: 4378-4383, 1997). At least triplicate determinations for each individual test compound concentration were made and data plotted as mean±standard deviation relative to the control vehicle.

Chain of wild-type C-RAF (P04049 whole entry): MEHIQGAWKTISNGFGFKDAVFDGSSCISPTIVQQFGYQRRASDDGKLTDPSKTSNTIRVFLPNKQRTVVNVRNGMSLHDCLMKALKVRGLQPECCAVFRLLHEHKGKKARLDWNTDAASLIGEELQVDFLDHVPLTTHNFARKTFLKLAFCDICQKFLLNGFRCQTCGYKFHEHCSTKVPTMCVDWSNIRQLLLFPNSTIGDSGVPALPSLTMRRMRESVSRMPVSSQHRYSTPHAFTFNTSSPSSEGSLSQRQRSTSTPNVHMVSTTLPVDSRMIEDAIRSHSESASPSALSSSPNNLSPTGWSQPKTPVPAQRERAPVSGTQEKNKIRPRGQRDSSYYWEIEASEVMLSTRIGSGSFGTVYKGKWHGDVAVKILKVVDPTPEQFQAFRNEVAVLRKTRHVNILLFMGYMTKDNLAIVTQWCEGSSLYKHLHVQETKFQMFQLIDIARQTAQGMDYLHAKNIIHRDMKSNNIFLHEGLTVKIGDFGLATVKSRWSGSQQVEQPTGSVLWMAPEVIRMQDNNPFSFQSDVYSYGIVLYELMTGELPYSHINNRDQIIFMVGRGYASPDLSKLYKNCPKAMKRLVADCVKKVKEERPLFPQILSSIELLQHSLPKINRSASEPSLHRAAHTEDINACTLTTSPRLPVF

| SMILES | IC50 (wild-type C-RAF) | IC50 [1] | IC50 (V600E-mutated B-RAF) |
| --- | --- | --- | --- |
| Cc1ccc(NC(=O)Nc2cccc(-c3sc(C)nc3-c3ccncc3)c2)cc1 [Example 1, 1-[3-(2-Methyl-4-pyridin-4-yl-thiazol-5-yl)-phenyl]-3-p-tolyl-urea] | 1 to 10 µM | > 10 µM | ≤ 0.1 µM |
| Cc1ccc(NC(=O)Nc2cc(-c3sc(C)nc3-c3ccncc3)ccc2F)cc1 [Example 7, 1-(2-fluoro-5-(2-methyl-4-(pyridin-4-yl)thiazol-5-yl)phenyl)-3-p-tolylurea] | 0.1 to 1 µM | 1 to 10 µM | ≤ 0.1 µM |
| Cc1ccc(NC(=O)Nc2cccc(-c3sc(C)nc3-c3ccnc(N)c3)c2)cc1 [Example 20, 1-(3-(4-(2-aminopyridin-4-yl)-2-methylthiazol-5-yl)phenyl)-3-p-tolylurea] | – | 1 to 10 µM | ≤ 0.1 µM |
| Cc1nc(-c2ccnc(N)c2)c(-c2cccc(NC(=O)Nc3ccc(Cl)cc3)c2)s1 [Example 21, 1-(3-(4-(2-aminopyridin-4-yl)-2-methylthiazol-5-yl)phenyl)-3-(4-chlorophenyl)urea] | – | 1 to 10 µM | ≤ 0.1 µM |
| Cc1nc(-c2ccnc(N)c2)c(-c2ccc(F)c(NC(=O)Nc3ccc(Cl)cc3)c2)s1 [Example 22, 1-(5-(4-(2-aminopyridin-4-yl)-2-methylthiazol-5-yl)-2-fluorophenyl)-3-(4-chlorophenyl)urea] | – | 1 to 10 µM | ≤ 0.1 µM |
| Cc1nc(-c2ccnc(N)c2)c(-c2cccc(NC(=O)Nc3ccc(C(F)(F)F)cc3)c2F)s1 [Example 24, 1-(3-(4-(2-aminopyridin-4-yl)-2-methylthiazol-5-yl)-2-fluorophenyl)-3-(4-(trifluoromethyl)phenyl)urea] | – | 0.1 to 1 µM | 0.1 to 1 µM |
| Cc1nc(-c2ccnc(N)c2)c(-c2cc(NC(=O)Nc3ccc(C(F)(F)F)cc3)c(F)cc2F)s1 [Example 25, 1-(5-(4-(2-aminopyridin-4-yl)-2-methylthiazol-5-yl)-2,4-difluorophenyl)-3-(4-(trifluoromethyl)phenyl)urea] | – | 1 to 10 µM | ≤ 0.1 µM |
| Cc1nc(-c2ccnc(N)c2)c(-c2cccc(NC(=O)Nc3ccc(C(F)(F)F)cc3)c2)s1 [Example 26, 1-(3-(4-(2-aminopyridin-4-yl)-2-methylthiazol-5-yl)phenyl)-3-(4-(trifluoromethyl)phenyl)urea] | – | > 10 µM | ≤ 0.1 µM |
| O=C(Nc1ccc(Cl)cc1)Nc1cccc(-c2sc(N3CCOCC3)nc2-c2ccncc2)c1 [Example 33, 1-(4-chlorophenyl)-3-(3-(2-morpholino-4-(pyridin-4-yl)thiazol-5-yl)phenyl)urea] | – | 1 to 10 µM | ≤ 0.1 µM |
| O=C(Nc1ccc(Cl)cc1)Nc1cccc(-c2sc(NCCN3CCOCC3)nc2-c2ccncc2)c1 [Example 34, 1-(4-chlorophenyl)-3-(3-(2-(2-morpholinoethylamino)-4-(pyridin-4-yl)thiazol-5-yl)phenyl)urea] | – | 1 to 10 µM | ≤ 0.1 µM |
| O=C(Nc1ccc(C(F)(F)F)cc1)Nc1cc(-c2sc(NCCN3CCOCC3)nc2-c2ccncc2)ccc1F [Example 35, 1-(2-fluoro-5-(2-(2-morpholinoethylamino)-4-(pyridin-4-yl)thiazol-5-yl)phenyl)-3-(4-(trifluoromethyl)phenyl)urea] | – | 0.1 to 1 µM | ≤ 0.1 µM |
| O=C(Nc1ccc(C(F)(F)F)cc1)Nc1cccc(-c2sc(NCCN3CCOCC3)nc2-c2ccncc2)c1 [Example 37, 1-(3-(2-(2-morpholinoethylamino)-4-(pyridin-4-yl)thiazol-5-yl)phenyl)-3-(4-(trifluoromethyl)phenyl)urea] | – | 1 to 10 µM | ≤ 0.1 µM |
| Cc1nc(-c2ccncc2)c(-c2cccc(NS(=O)(=O)c3cc(F)ccc3F)c2)s1 [Example 41, 2,5-Difluoro-N-[3-(2-methyl-4-pyridin-4-yl-thiazol-5-yl)-phenyl]-benzenesulfonamide] | – | 1 to 10 µM | ≤ 0.1 µM |
| Cc1ccc(NC(=O)Cc2cccc(-c3sc(C)nc3-c3ccncc3)c2)cc1 [Example 47, 2-(3-(2-methyl-4-(pyridin-4-yl)thiazol-5-yl)phenyl)-N-p-tolylacetamide] | – | > 10 µM | ≤ 0.1 µM |
| CCn1cc(-c2ccc(F)c(NC(=O)Nc3ccc(Cl)cc3)c2)c(-c2ccncc2)n1 [Example 48, 1-(4-chlorophenyl)-3-(5-(1-ethyl-3-(pyridin-4-yl)-1H-pyrazol-4-yl)-2-fluorophenyl)urea] | – | 1 to 10 µM | ≤ 0.1 µM |
| CCn1cc(-c2cccc(NC(=O)Nc3ccc(Cl)cc3)c2F)c(-c2ccncc2)n1 [Example 49, 1-(4-chlorophenyl)-3-(3-(1-ethyl-3-(pyridin-4-yl)-1H-pyrazol-4-yl)-2-fluorophenyl)urea] | – | 0.1 to 1 µM | ≤ 0.1 µM |
| CCn1cc(-c2cccc(NC(=O)Nc3ccc(C(F)(F)F)cc3)c2F)c(-c2ccncc2)n1 [Example 50, 1-(3-(1-ethyl-3-(pyridin-4-yl)-1H-pyrazol-4-yl)-2-fluorophenyl)-3-(4-(trifluoromethyl)phenyl)urea] | 1 to 10 µM | 0.1 to 1 µM | ≤ 0.1 µM |
| CCn1cc(-c2cccc(NC(=O)Nc3ccc(S(C)(=O)=O)cc3)c2)c(-c2ccncc2)n1 [Example 51, 1-(3-(1-ethyl-3-(pyridin-4-yl)-1H-pyrazol-4-yl)phenyl)-3-(4-(methylsulfonyl)phenyl)urea] | – | 1 to 10 µM | ≤ 0.1 µM |
| CCn1cc(-c2cccc(NC(=O)Nc3ccc(C(F)(F)F)cc3)c2)c(-c2ccncc2)n1 [Example 52, 1-(3-(1-ethyl-3-(pyridin-4-yl)-1H-pyrazol-4-yl)phenyl)-3-(4-(trifluoromethyl)phenyl)urea] | 0.1 to 1 µM | ≤ 0.1 µM | ≤ 0.1 µM |
| CCn1cc(-c2cccc(N3CCN(c4ccc(C(F)(F)F)cc4)C3=O)c2)c(-c2ccncc2)n1 [Example 53, 1-(3-(1-ethyl-3-(pyridin-4-yl)-1H-pyrazol-4-yl)phenyl)-3-(4-(trifluoromethyl)phenyl)imidazolidin-2-one] | – | 1 to 10 µM | ≤ 0.1 µM |
| CCn1cc(-c2cccc(NC(=O)Nc3ccc(S(=O)(=O)CC)cc3)c2)c(-c2ccncc2)n1 [Example 54, 1-(3-(1-ethyl-3-(pyridin-4-yl)-1H-pyrazol-4-yl)phenyl)-3-(4-(ethylsulfonyl)phenyl)urea] | – | 1 to 10 µM | ≤ 0.1 µM |
| CCn1cc(-c2cccc(NC(=O)Nc3cccc(S(C)(=O)=O)c3)c2)c(-c2ccncc2)n1 [Example 55, 1-(3-(1-ethyl-3-(pyridin-4-yl)-1H-pyrazol-4-yl)phenyl)-3-(3-(methylsulfonyl)phenyl)urea] | – | > 10 µM | ≤ 0.1 µM |
| CCn1cc(-c2cccc(NC(=O)Nc3ccc(S(=O)(=O)NC)cc3)c2)c(-c2ccncc2)n1 [Example 56, 4-(3-(3-(1-ethyl-3-(pyridin-4-yl)-1H-pyrazol-4-yl)phenyl)ureido)-N-methylbenzenesulfonamide] | – | > 10 µM | ≤ 0.1 µM |
| CCn1cc(-c2cccc(NC(=O)Nc3ccc(OC)cc3)c2)c(-c2ccncc2)n1 [Example 57, 1-(3-(1-ethyl-3-(pyridin-4-yl)-1H-pyrazol-4-yl)phenyl)-3-(4-methoxyphenyl)urea] | – | ≤ 0.1 µM | ≤ 0.1 µM |
| CCn1cc(-c2cccc(NC(=O)Nc3ccc(S(=O)(=O)N4CCOCC4)cc3)c2)c(-c2ccncc2)n1 [Example 59, 1-(3-(1-ethyl-3-(pyridin-4-yl)-1H-pyrazol-4-yl)phenyl)-3-(4-(morpholinosulfonyl)phenyl)urea] | – | > 10 µM | ≤ 0.1 µM |
| CCn1cc(-c2cccc(N(O)C(=O)Nc3ccc(C(F)(F)F)cc3)c2)c(-c2ccncc2)n1 [Example 63, 1-(3-(1-ethyl-3-(pyridin-4-yl)-1H-pyrazol-4-yl)phenyl)-1-hydroxy-3-(4-(trifluoromethyl)phenyl)urea] | – | 1 to 10 µM | ≤ 0.1 µM |
